Experimental data reported in the supplement of paper PMC10307832.

Assays:
Test in all cases: relative viability (nuclei count vs DMSO), 5 days (fraction); higher = more cells survive
[1] = compound: CN(C)CC1=CC(=CC=C1)N=C(C2=CC=CC=C2)C3=C(NC4=C3C=CC(=C4)C(=O)N(C)C)O + Cc1cc(Nc2cc(N3CCN(C)CC3)nc(Sc3ccc(NC(=O)C4CC4)cc3)n2)n[nH]1 [Tozasertib] (partner 0.1 µM)
Method in brief: (§1)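 Relative viability was taken as the ratio of nuclei in treated wells to nuclei in vehicle wells. Lung cancer cell lines in 1536-well plates received compounds by pin tool one day after seeding, either one drug alone or a fixed anchor-drug dose plus five library-drug doses (not always all listed) in √10 steps. Nuclei were counted on 4× images after 5 days of treatment, and values are medians of duplicate plates.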

[2] = compound: CN(C)CC1=CC(=CC=C1)N=C(C2=CC=CC=C2)C3=C(NC4=C3C=CC(=C4)C(=O)N(C)C)O + Cc1nc(Nc2ncc(C(=O)Nc3c(C)cccc3Cl)s2)cc(N2CCN(CCO)CC2)n1 [Dasatinib] (partner 0.075 µM)
Method in brief: as §1

[3] = compound: CN(C)CC1=CC(=CC=C1)N=C(C2=CC=CC=C2)C3=C(NC4=C3C=CC(=C4)C(=O)N(C)C)O + Cc1nc(NC(=O)N2CCC[C@H]2C(N)=O)sc1-c1ccnc(C(C)(C)C(F)(F)F)c1 [Alpelisib] (partner 2 µM)
Method in brief: as §1

[4] = compound: CN(C)CC1=CC(=CC=C1)N=C(C2=CC=CC=C2)C3=C(NC4=C3C=CC(=C4)C(=O)N(C)C)O + CCNC(=O)c1noc(-c2cc(C(C)C)c(O)cc2O)c1-c1ccc(CN2CCOCC2)cc1 [Luminespib] (partner 0.01 µM)
Method in brief: as §1

Cell Line | relative viability ([1]; first compound 0.08 µM) | relative viability ([1]; first compound 0.253 µM) | relative viability ([1]; first compound 0.8 µM) | relative viability ([1]; first compound 2.53 µM) | relative viability ([1]; first compound 8 µM) | relative viability ([2]; first compound 0.08 µM) | relative viability ([2]; first compound 0.253 µM) | relative viability ([2]; first compound 0.8 µM) | relative viability ([2]; first compound 2.53 µM) | relative viability ([2]; first compound 8 µM) | relative viability ([3]; first compound 0.08 µM) | relative viability ([3]; first compound 0.253 µM) | relative viability ([3]; first compound 0.8 µM) | relative viability ([3]; first compound 2.53 µM) | relative viability ([3]; first compound 8 µM) | relative viability ([4]; first compound 0.08 µM) | relative viability ([4]; first compound 0.253 µM) | relative viability ([4]; first compound 0.8 µM) | relative viability ([4]; first compound 2.53 µM) | relative viability ([4]; first compound 8 µM)
HCC-366 | 0.17 | 0.133 | 0.131 | 0.153 | 0.118 | 0.71 | 0.8 | 0.592 | 0.502 | 0.564 | 0.397 | 0.386 | 0.42 | 0.393 | 0.344 |  |  |  |  | 
HCC-827 | 0.435 | 0.457 | 0.376 | 0.408 | 0.396 | 0.382 | 0.25 | 0.203 | 0.294 | 0.236 | 1.06 | 1.04 | 0.93 | 0.923 | 0.875 | 0.442 | 0.651 | 0.457 | 0.723 | 0.489
HOP-62 | 0.389 | 0.383 | 0.364 | 0.334 | 0.376 | 0.618 | 0.703 | 0.65 | 0.571 | 0.579 | 0.995 | 1.13 | 0.93 | 1.03 | 0.973 | 0.818 | 0.933 | 0.977 | 0.929 | 1.05
IA-LM |  |  |  |  |  |  |  |  |  |  |  | 0.806 | 0.942 | 0.88 | 1.03 |  |  |  |  | 
LC-2-ad | 0.503 | 0.409 | 0.415 | 0.492 | 0.407 | 0.697 | 0.593 | 0.751 | 0.409 | 0.44 | 0.896 | 0.86 | 0.857 | 0.848 | 0.672 | 1.01 | 0.894 | 1.06 | 0.863 | 0.973
LCLC-97TM1 | 0.219 | 0.256 | 0.224 | 0.283 | 0.255 | 0.816 | 0.922 | 0.785 | 0.786 | 0.821 | 0.286 | 0.203 | 0.293 | 0.324 | 0.343 | 0.757 | 0.849 | 0.771 | 0.957 | 0.834
LCLC-103H | 0.455 | 0.524 | 0.551 | 0.516 | 0.509 | 0.482 | 0.487 | 0.435 | 0.42 | 0.497 | 0.987 | 0.923 | 0.938 | 0.876 | 0.98 | 0.948 | 0.959 | 1.07 | 0.926 | 0.863
LK-2 | 0.162 | 0.165 | 0.171 | 0.188 | 0.198 | 0.296 | 0.389 | 0.25 | 0.328 | 0.275 | 1.2 | 0.924 | 0.897 | 0.928 | 0.881 | 0.229 | 0.164 | 0.188 | 0.183 | 0.138
LOU-NH91 | 0.68 | 0.673 | 0.54 | 0.642 | 0.629 | 0.572 | 0.552 | 0.485 | 0.539 | 0.503 | 0.743 | 0.72 | 0.577 | 0.718 | 0.696 | 0.308 | 0.32 | 0.358 | 0.337 | 0.322
